Experimental data as given in ChEMBL document CHEMBL1154631 (Bioorg Med Chem Lett, 2009).

Columns and labels:
Mu-type opioid receptor = Mu-type opioid receptor (Homo sapiens, UniProt P35372)
Adenosine receptor A1 = target: T1, Adenosine receptor A1 (Homo sapiens, UniProt P30542); test: Binding affinity to adenosine receptor A1
T1 sequence (P30542 whole entry): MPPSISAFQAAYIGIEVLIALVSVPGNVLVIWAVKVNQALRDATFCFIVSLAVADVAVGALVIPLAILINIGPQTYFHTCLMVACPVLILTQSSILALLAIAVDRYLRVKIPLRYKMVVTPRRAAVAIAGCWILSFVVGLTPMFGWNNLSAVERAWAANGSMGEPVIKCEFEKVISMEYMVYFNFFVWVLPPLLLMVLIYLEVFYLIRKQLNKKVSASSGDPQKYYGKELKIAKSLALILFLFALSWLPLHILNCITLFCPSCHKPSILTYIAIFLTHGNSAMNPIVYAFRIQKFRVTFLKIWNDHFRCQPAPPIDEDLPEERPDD

Sequence of Mu-type opioid receptor (P35372 whole entry): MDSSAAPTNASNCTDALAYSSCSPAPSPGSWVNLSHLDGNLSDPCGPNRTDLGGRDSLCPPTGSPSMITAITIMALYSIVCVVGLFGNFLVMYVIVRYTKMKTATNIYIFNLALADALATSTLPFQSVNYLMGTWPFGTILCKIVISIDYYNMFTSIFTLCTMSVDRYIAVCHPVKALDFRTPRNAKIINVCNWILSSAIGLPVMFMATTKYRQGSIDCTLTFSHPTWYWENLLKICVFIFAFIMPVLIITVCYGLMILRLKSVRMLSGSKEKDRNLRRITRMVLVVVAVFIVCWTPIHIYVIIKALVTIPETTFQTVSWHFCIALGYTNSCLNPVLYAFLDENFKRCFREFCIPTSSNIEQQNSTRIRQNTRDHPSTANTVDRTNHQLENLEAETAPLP

SMILES | Ki (Mu-type opioid receptor) [µM] | Ki (Adenosine receptor A1) [µM]
CCCn1c(=O)c2[nH]c(C3CCCC3)nc2n(CCC)c1=O [1,3-DIPROPYL-8-CYCLOPENTYLXANTHINE [DPCPX]] | > 100 | –
C[C@@H](NC(=O)[C@@H](N)Cc1ccc(O)cc1)C(=O)NCC(=O)N(C)[C@@H](Cc1ccccc1)C(=O)NCCO [DAMGO] | – | > 100
C=CCN1CC[C@]23c4c5ccc(O)c4O[C@H]2C(=O)CC[C@@]3(O)[C@H]1C5 [NALOXONE] | – | > 50
